Measurements taken from patent US12690590B2, “Phenyl compound and plant disease control method” (SUMITOMO CHEMICAL COMPANY, LIMITED, priority 2020, dated 2026).

Tests used:
[1] = system: Microsphaera diffusa; assay: Test Example 10: test for controlling soybean powdery mildew, foliar spray after inoculation; type: in vivo; settings: 200 ppm foliar spray 2 days after inoculation, soybeans (Kurosengoku)
[2] = system: Phytophthora infestans; type: in vivo; settings: 200 ppm foliar spray, tomatoes (Patio), inoculated 1 day after spraying

SMILES	lesion area in the treated soybeans relative to the lesion area in the non-treated soybeans [1]	lesion area in the treated tomatoes relative to the lesion area in the non-treated tomatoes [2]
CCCCCSc1ccn(-c2ccc(Cl)cc2)n1 [IIA-53]	≤ 30%	–
CCCS(=O)(=O)c1nc(-c2ccc(C(C)(C)C)cc2)cs1 [IIC-16]	–	≤ 30%
